Source: the NIST ThermoML archive (doi:10.1021/acs.jced.8b00554)

Experiment: xn = mol fraction of the nth substance listed
Settings: Liquid, Vibrating tube method

CCCCCCCC [octane] + CCCO
Settings	mass density [kg/m3]
313.15 K, 15010 kPa, x2 = 0.8823	776.2
313.15 K, 15020 kPa, x2 = 0.1631	706.63
313.15 K, 16000 kPa, x2 = 0.1631	707.41
313.15 K, 16010 kPa, x2 = 0.4411	725.31
313.15 K, 16010 kPa, x2 = 0.7301	754.27
313.15 K, 16010 kPa, x2 = 0.8823	776.98
313.15 K, 16020 kPa, x2 = 0.2111	710.08
313.15 K, 16020 kPa, x2 = 0.3158	716.32
313.15 K, 17000 kPa, x2 = 0.8823	777.78
313.15 K, 17020 kPa, x2 = 0.1631	708.23
313.15 K, 17020 kPa, x2 = 0.2111	710.85
313.15 K, 17020 kPa, x2 = 0.3158	717.13
313.15 K, 17020 kPa, x2 = 0.4411	726.11
313.15 K, 17020 kPa, x2 = 0.7301	755.05
313.15 K, 18000 kPa, x2 = 0.1631	709.02
313.15 K, 18000 kPa, x2 = 0.4411	726.91
313.15 K, 18010 kPa, x2 = 0.2111	711.64
313.15 K, 18010 kPa, x2 = 0.3158	717.91
313.15 K, 18010 kPa, x2 = 0.8823	778.53
313.15 K, 18020 kPa, x2 = 0.7301	755.85
313.15 K, 19000 kPa, x2 = 0.3158	718.69
313.15 K, 19000 kPa, x2 = 0.7301	756.62
313.15 K, 19010 kPa, x2 = 0.2111	712.43
313.15 K, 19010 kPa, x2 = 0.4411	727.68
313.15 K, 19010 kPa, x2 = 0.8823	779.29
313.15 K, 19020 kPa, x2 = 0.1631	709.81
313.15 K, 20000 kPa, x2 = 0.2111	713.22
313.15 K, 20000 kPa, x2 = 0.4411	728.45
313.15 K, 20010 kPa, x2 = 0.1631	710.59
313.15 K, 20010 kPa, x2 = 0.3158	719.47
313.15 K, 20010 kPa, x2 = 0.7301	757.39
313.15 K, 20020 kPa, x2 = 0.8823	780.06
323.15 K, 100 kPa, x2 = 0.1631	684.56
323.15 K, 100 kPa, x2 = 0.2111	687.03
323.15 K, 100 kPa, x2 = 0.3158	693.22
323.15 K, 100 kPa, x2 = 0.4411	702.44
323.15 K, 100 kPa, x2 = 0.7301	731.25
323.15 K, 100 kPa, x2 = 0.8823	754.72
323.15 K, 1000 kPa, x2 = 0.8823	755.36
323.15 K, 1010 kPa, x2 = 0.3158	694.15
323.15 K, 1010 kPa, x2 = 0.4411	703
323.15 K, 1010 kPa, x2 = 0.7301	732.1
323.15 K, 1020 kPa, x2 = 0.1631	685.52
323.15 K, 1020 kPa, x2 = 0.2111	688.02
323.15 K, 2000 kPa, x2 = 0.4411	703.99
323.15 K, 2010 kPa, x2 = 0.1631	686.54
323.15 K, 2010 kPa, x2 = 0.2111	689.01
323.15 K, 2010 kPa, x2 = 0.3158	695.16
323.15 K, 2010 kPa, x2 = 0.7301	733.06
323.15 K, 2020 kPa, x2 = 0.8823	756.3
323.15 K, 3000 kPa, x2 = 0.4411	704.97
323.15 K, 3010 kPa, x2 = 0.3158	696.14
323.15 K, 3010 kPa, x2 = 0.7301	734.04
323.15 K, 3010 kPa, x2 = 0.8823	757.26
323.15 K, 3020 kPa, x2 = 0.1631	687.52
323.15 K, 3020 kPa, x2 = 0.2111	690
323.15 K, 4010 kPa, x2 = 0.7301	734.99
323.15 K, 4010 kPa, x2 = 0.8823	758.2
323.15 K, 4020 kPa, x2 = 0.1631	688.52
323.15 K, 4020 kPa, x2 = 0.2111	691
323.15 K, 4020 kPa, x2 = 0.3158	697.11
323.15 K, 4020 kPa, x2 = 0.4411	705.97
323.15 K, 5010 kPa, x2 = 0.1631	689.5
323.15 K, 5010 kPa, x2 = 0.7301	735.97
323.15 K, 5020 kPa, x2 = 0.2111	691.96
323.15 K, 5020 kPa, x2 = 0.3158	698.1
323.15 K, 5020 kPa, x2 = 0.4411	706.95
323.15 K, 5020 kPa, x2 = 0.8823	759.13
323.15 K, 6000 kPa, x2 = 0.7301	736.92
323.15 K, 6010 kPa, x2 = 0.1631	690.43
323.15 K, 6010 kPa, x2 = 0.2111	692.93
323.15 K, 6010 kPa, x2 = 0.4411	707.91
323.15 K, 6010 kPa, x2 = 0.8823	760.04
323.15 K, 6020 kPa, x2 = 0.3158	699.06
323.15 K, 7000 kPa, x2 = 0.1631	691.4
323.15 K, 7010 kPa, x2 = 0.2111	693.87
323.15 K, 7010 kPa, x2 = 0.4411	708.85
323.15 K, 7010 kPa, x2 = 0.7301	737.85
323.15 K, 7020 kPa, x2 = 0.3158	700.03
323.15 K, 7020 kPa, x2 = 0.8823	760.95
323.15 K, 8000 kPa, x2 = 0.1631	692.37
323.15 K, 8010 kPa, x2 = 0.3158	700.95
323.15 K, 8010 kPa, x2 = 0.4411	709.8
323.15 K, 8010 kPa, x2 = 0.7301	738.79
323.15 K, 8010 kPa, x2 = 0.8823	761.85
323.15 K, 8020 kPa, x2 = 0.2111	694.84
323.15 K, 9000 kPa, x2 = 0.7301	739.71
323.15 K, 9010 kPa, x2 = 0.4411	710.74
323.15 K, 9010 kPa, x2 = 0.8823	762.75
323.15 K, 9020 kPa, x2 = 0.1631	693.29
323.15 K, 9020 kPa, x2 = 0.2111	695.78
323.15 K, 9020 kPa, x2 = 0.3158	701.92
323.15 K, 10000 kPa, x2 = 0.1631	694.22
323.15 K, 10000 kPa, x2 = 0.7301	740.61
323.15 K, 10010 kPa, x2 = 0.2111	696.69
